Each block holds one compound with its values, some of them ahead of it.
Legend:
Assay type in all cases: biochemical, Acremonium thermophilum
AtBG3 [1] = system: T1, AtBG3; assay: glucose release, hexokinase/G6PDH assay; fit with transglycosylation; conditions: 25 °C, pH 5.0, 50 mM sodium acetate; hydrolysis constant, substrate inhibition by transglycosylation; read-out: KM(h)(mM)^a / AtBG3
T1 construct: secreted enzyme, heterologously expressed in Trichoderma reesei lacking four major cellulases; gel filtration; 101 kDa

AtBG3 [2] = molecular target: T1, AtBG3; assay: inhibition of MUG hydrolysis, fluorescence; conditions: 25 °C, pH 5.0, 2.5 μM MUG; IC50 at [S] << KM taken as Ki; competitive inhibition assumed; read-out: AtBG3^b
From the text: inhibition of MUG hydrolysis, fluorescence on AtBG3

AtBG3 [3] = system: T1, AtBG3; assay: pNP release, absorbance […] nm; fit with transglycosylation; conditions: 25 °C, pH 5.0, 50 mM sodium acetate; hydrolysis constant, substrate inhibition by transglycosylation; read-out: KM(h)

Km (AtBG3 [1]): 0.29 ± 0.07 mM
Structure (SMILES): OC[C@H]1O[C@@H](O[C@H]2[C@H](O)[C@@H](O)C(O)O[C@@H]2CO)[C@H](O)[C@@H](O)[C@@H]1O (stereo partly drawn) [cellobiose]

Ki (AtBG3 [2]): 220 µM
Structure (SMILES): OC[C@H]1OC(O)[C@H](O)[C@@H](O)[C@@H]1O (stereo partly drawn) [glucose]

Km (AtBG3 [3]): 95 ± 3 µM
Structure (SMILES): O=[N+]([O-])c1ccc(O[C@@H]2O[C@H](CO)[C@@H](O)[C@H](O)[C@H]2O)cc1 [para-nitrophenyl-β-glucoside]
